Assay results as given in PubChem BioAssay AID2060615 (Molecular Pharmacology Branch, DTP, NCI, 2025).

Test system: 496974-208-R-J2-PDC complex spheroids, growth % test/control
Assay: Anticancer human tumor 496974-208-R-J2-PDC patient-derived pancreatic carcinoma cell line growth inhibition [CLK]
Conditions: for IC50: curve of first compound; for viability, T/C: stronger effect = lower value
Method in brief: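 Multi-cell-type spheroids combined patient-derived tumor cells with HUVEC endothelial cells and human mesenchymal stem cells. Paired agents were dosed in half-log steps down from about clinical Cmax, or from 10 microM where Cmax was unknown.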
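Also: spheroids exposed to the drugs for 7 days before readout.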
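For viability, T/C in this document: 100% = DMSO vehicle control wells.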

IC50 (second compound 0.0316 µM): > 100 nM
IC50 (second compound 0.1 µM): > 100 nM
IC50 (second compound 0.316 µM): > 100 nM
IC50 (second compound 1 µM): > 100 nM
IC50 (second compound 3.16 µM): > 100 nM
IC50 (second compound 10 µM): > 100 nM
Compound: Cn1ncnc1[C@H]1c2n[nH]c(=O)c3cc(F)cc(c23)N[C@@H]1c1ccc(F)cc1 + CNC(=O)c1ccc(Nc2nc(OC3CCCC3)c3c(-c4ccc5nc(C)oc5c4)c[nH]c3n2)c(OC)c1
viability, T/C (second compound 0.0316 µM, first compound 0.000316 µM): 103%
viability, T/C (second compound 0.0316 µM, first compound 0.001 µM): 110%
viability, T/C (second compound 0.0316 µM, first compound 0.00316 µM): 95%
viability, T/C (second compound 0.0316 µM, first compound 0.01 µM): 100%
viability, T/C (second compound 0.0316 µM, first compound 0.0316 µM): 98.2%
viability, T/C (second compound 0.0316 µM, first compound 0.1 µM): 85.7%
viability, T/C (second compound 0.1 µM, first compound 0.000316 µM): 77%
viability, T/C (second compound 0.1 µM, first compound 0.001 µM): 83.3%
viability, T/C (second compound 0.1 µM, first compound 0.00316 µM): 83.1%
viability, T/C (second compound 0.1 µM, first compound 0.01 µM): 94.6%
viability, T/C (second compound 0.1 µM, first compound 0.0316 µM): 74.6%
viability, T/C (second compound 0.1 µM, first compound 0.1 µM): 78%
viability, T/C (second compound 0.316 µM, first compound 0.000316 µM): 82%
viability, T/C (second compound 0.316 µM, first compound 0.001 µM): 84%
viability, T/C (second compound 0.316 µM, first compound 0.00316 µM): 99.9%
viability, T/C (second compound 0.316 µM, first compound 0.01 µM): 80.4%
viability, T/C (second compound 0.316 µM, first compound 0.0316 µM): 78.3%
viability, T/C (second compound 0.316 µM, first compound 0.1 µM): 67.9%
viability, T/C (second compound 1 µM, first compound 0.000316 µM): 72.4%
viability, T/C (second compound 1 µM, first compound 0.001 µM): 73.5%
viability, T/C (second compound 1 µM, first compound 0.00316 µM): 68.9%
viability, T/C (second compound 1 µM, first compound 0.01 µM): 76.7%
viability, T/C (second compound 1 µM, first compound 0.0316 µM): 74.9%
viability, T/C (second compound 1 µM, first compound 0.1 µM): 65%
viability, T/C (second compound 3.16 µM, first compound 0.000316 µM): 69.3%
viability, T/C (second compound 3.16 µM, first compound 0.001 µM): 62.8%
viability, T/C (second compound 3.16 µM, first compound 0.00316 µM): 57.4%
viability, T/C (second compound 3.16 µM, first compound 0.01 µM): 61.5%
viability, T/C (second compound 3.16 µM, first compound 0.0316 µM): 67.2%
viability, T/C (second compound 3.16 µM, first compound 0.1 µM): 65%
viability, T/C (second compound 10 µM, first compound 0.000316 µM): 55.5%
viability, T/C (second compound 10 µM, first compound 0.001 µM): 55%
viability, T/C (second compound 10 µM, first compound 0.00316 µM): 55.7%
viability, T/C (second compound 10 µM, first compound 0.01 µM): 54.1%
viability, T/C (second compound 10 µM, first compound 0.0316 µM): 54.2%
viability, T/C (second compound 10 µM, first compound 0.1 µM): 52.7%
